According to patent US20210276978A1, “INHIBITORS OF HISTONE DEACETYLASE” (Alkermes, Inc., priority 2018, published 2021):

What was measured:
Full length Human HDAC2 = molecular target: T1, Full length Human HDAC2 (Homo sapiens, UniProt Q92769); experiment: HDAC2 enzymatic assay (deacetylation of FAM-labeled peptide substrate, microfluidic electrophoresis); type: biochemical; settings: 1 uM substrate peptide
T1 construct: Full length Human HDAC2 with; FLAG (C); host or cells: baculovirus expression system
Experimental: (§1) HDAC2 and HDAC1 Enzymatic Assay (HDAC2 and HDAC1 IC50 Data)
(§2) The following describes an assay protocol for measuring the deacetylation of a peptide substrate by HDAC2 or HDAC1.
(§3) HDAC protein composition and respective substrate peptides are summarized below.
(§4) HDAC reactions are assembled in 384 well plates (Greiner) in a total volume of 20 µL as following:
(§5) HDAC proteins are pre-diluted in the assay buffer comprising: 100 mM HEPES, pH 7.5, 0.1% BSA, 0.01% Triton X-100, 25 mM KCl and dispensed into 384 well plate (10 uL per well).
(§6) Test compounds are serially pre-diluted in DMSO and added to the protein samples by acoustic dispensing (Labcyte Echo). Concentration of DMSO is equalized to 1% in all samples.
(§7) Control samples (0%-inhibition in the absence of inhibitor, DMSO only) and 100%-inhibition (in the absence of enzyme) are assembled in replicates of four and used to calculate the %-inhibition in the presence of compounds.
(§8) At this step compounds can be pre-incubated with enzyme if desired.
(§9) The reactions are initiated by addition of 10 uL of the FAM-labeled substrate peptide pre-diluted in the same assay buffer. Final concentration of substrate peptide is 1 uM (HDAC1-2). The reactions are allowed to proceed at room temperature. Following incubation, the reactions are quenched by addition of 50 µL of termination buffer (100 mM HEPES, pH7.5, 0.01% Triton X-100, 0.1% SDS). Terminated plates are analyzed on a microfluidic electrophoresis instrument (Caliper LabChip® 3000, Caliper Life Sciences/Perkin Elmer) which enables electrophoretic separation of de-acetylated product from acetylated substrate. A change in the relative intensity of the peptide substrate and product is the parameter measured. Activity in each test sample is determined as the product to sum ratio (PSR): P/(S+P), where P is the peak height of the product, and S is the peak height of the substrate. Percent inhibition (Pinh) is determined using the following equation: Pinh=(PSR0% inh−PSRcompound)/(PSR0% inh−PSR100% inh)*100, in which: PSRcompound is the product/sum ratio in the presence of compound, PSR0% inh is the product/sum ratio in the absence of compound and the PSR100% inh is the product/sum ratio in the absence of the enzyme. To determine IC50 of compounds (50%-inhibition) the %-inh data (Pinh versus compound concentration) are fit by a 4 parameter sigmoid dose-response model using XLfit software (IDBS).
(§10) In the table, “A” indicates a IC50 value of less than 0.5 “B” a IC50 value from 0.5 μM to 1.0 μM; “C” a IC50 value of greater than 1.0 μM and less than or equal to 2.0 μM; and “D” indicates an IC50 value of greater than 2.0 NT=Not Tested.

HDAC2 = molecular target: T2, HDAC2 (Homo sapiens, UniProt Q92769); experiment: HDAC2 enzymatic inhibition assay in SH-SY5Y cell lysate with an exogenous substrate (HDAC-Glo 2); type: cell-based; settings: SH-SY5Y cells
T2 construct: host or cells: SH-SY5Y cells
Experimental: HDAC2 Enzymatic Inhibition Assay in SH-SY5Y Cell Lysate with an Exogenous Substrate
SH-SY5Y cells (Sigma) were cultured in Eagle's Modified Essential Medium supplemented with 10% fetal bovine serum and pen/strep. Twenty-four hours prior to compound dosing 20 uL of cells were plated in white 384 well plates at a density of 1,500 cells/well. Compounds were serially diluted in neat DMSO and then diluted 1:100 v/v into media without FBS and mixed. Media was removed from the plated cells and the diluted compounds in serum free media (1% v/v final DMSO) were added and incubated at 37.0 for five hours. Ten uL of HDAC-Glo 2 reagent with 0.1% Triton X-100 was then added, the plate was mixed and allowed to develop at room temperature for 100 minutes. Plates were then read with a Spectramax LMax luminometer employing a 0.4 s integration time. Dose response curves were constructed with normalized data where CI-994 at 100 uM was defined as 100% inhibition and DMSO alone as 0% inhibition.
In the table, “A” indicates a IC50 value of less than 0.5 μM; “B” a IC50 value from 0.5 μM to 1.0 μM; “C” a IC50 value of greater than 1.0 μM and less than or equal to 2.0 μM; and “D” indicates an IC50 value of greater than 2.0 μM. NT=Not Tested.

Full length Human HDAC1 = molecular target: T3, Full length Human HDAC1 (Homo sapiens, UniProt Q13547); experiment: HDAC1 enzymatic assay (deacetylation of FAM-labeled peptide substrate, microfluidic electrophoresis); type: biochemical; settings: 1 uM substrate peptide
T3 construct: Full length Human HDAC1 with; His (C); FLAG (C); host or cells: baculovirus expression system
Experimental: as §1, §2, §3, §4, §5, §6, §7, §8, §9, §10

[1] = five hours incubation, HDAC-Glo 2 reagent, class symbols

T2 sequence (Q92769 whole entry): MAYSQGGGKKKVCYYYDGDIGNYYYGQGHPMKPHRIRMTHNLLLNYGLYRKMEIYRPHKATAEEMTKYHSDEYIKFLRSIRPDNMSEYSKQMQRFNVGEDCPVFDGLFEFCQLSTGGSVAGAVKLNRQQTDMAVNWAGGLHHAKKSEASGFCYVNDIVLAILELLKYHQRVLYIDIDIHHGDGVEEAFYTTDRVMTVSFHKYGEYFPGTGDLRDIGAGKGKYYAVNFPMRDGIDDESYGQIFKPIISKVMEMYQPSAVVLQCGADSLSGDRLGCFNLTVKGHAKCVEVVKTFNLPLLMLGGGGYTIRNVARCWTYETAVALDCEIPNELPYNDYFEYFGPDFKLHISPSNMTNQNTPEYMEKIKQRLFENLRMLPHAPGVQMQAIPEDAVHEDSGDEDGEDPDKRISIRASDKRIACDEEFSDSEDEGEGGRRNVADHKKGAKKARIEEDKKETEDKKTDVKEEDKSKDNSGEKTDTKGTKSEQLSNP
T1 sequence (Q92769 whole entry): as above
T3 sequence (Q13547 whole entry): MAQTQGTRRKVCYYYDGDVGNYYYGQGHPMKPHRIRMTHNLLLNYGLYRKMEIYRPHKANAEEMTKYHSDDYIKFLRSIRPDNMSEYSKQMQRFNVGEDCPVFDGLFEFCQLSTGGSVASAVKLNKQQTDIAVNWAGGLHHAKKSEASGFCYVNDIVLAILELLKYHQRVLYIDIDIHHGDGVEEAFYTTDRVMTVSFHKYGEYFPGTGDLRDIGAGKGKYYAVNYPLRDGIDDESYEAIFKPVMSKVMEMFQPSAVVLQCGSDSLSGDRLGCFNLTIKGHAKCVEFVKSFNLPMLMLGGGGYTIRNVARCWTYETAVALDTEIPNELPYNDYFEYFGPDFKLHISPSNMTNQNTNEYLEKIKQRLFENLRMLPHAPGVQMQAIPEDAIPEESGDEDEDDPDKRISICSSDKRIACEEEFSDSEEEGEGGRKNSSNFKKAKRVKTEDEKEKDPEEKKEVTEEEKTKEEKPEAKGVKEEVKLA

Compound	IC50 (Full length Human HDAC2) [µM]	IC50 (HDAC2; [1]) [µM]	IC50 (Full length Human HDAC1) [µM]	IC50 (HDAC2; HDAC-Glo 2, numeric values, Table 4) [µM]
Nc1ccc(-c2ccc(F)cc2)nc1NC(=O)N1CCC(F)(c2ncccn2)C1 (single isomer, unassigned) [Compound 55]	< 0.5	0.5 to 1	< 0.5	
Nc1ccc(-c2ccc(F)cc2F)nc1NC(=O)N1CCC(Cc2cccnc2)C1 (centres unmarked) [Compound 31]		> 2		
Cc1cncc(C2CCN(C(=O)Nc3nc(-c4ccc(F)cc4F)ccc3N)C2)n1 (centres unmarked) [Compound 17]		1 to 2		
Nc1ccc(-c2ccc(F)cc2F)nc1NC(=O)N1CCC(Cc2ncccn2)C1 (single isomer, unassigned) [Compound 25E1]	1 to 2	0.5 to 1	1 to 2	
Nc1ccc(-c2cccs2)nc1NC(=O)N1CCC(c2ncccn2)C1 (centres unmarked) [Compound 41]	0.5 to 1	0.5 to 1	< 0.5	
Nc1ccc(-c2ccc(F)s2)nc1NC(=O)N1CCC(c2ncccn2)C1 (single isomer, unassigned) [Compound 40]	< 0.5	0.5 to 1	< 0.5	
Nc1ccc(-c2ccc(F)s2)nc1NC(=O)N1CCC(c2ncc(F)cn2)C1 (single isomer, unassigned) [Compound 44]	0.5 to 1	0.5 to 1	< 0.5	
Nc1ccc(-c2ccc(F)cc2F)nc1NC(=O)N1CCC(Cn2cccn2)C1 (centres unmarked) [Compound 35]		> 2		
Nc1ccc(-c2ccc(F)cc2F)nc1NC(=O)N1CC[C@@H](Oc2cccnc2)C1 [Compound 5]		> 2		
Nc1ccc(-c2ccc(F)cc2F)nc1NC(=O)N1CCC(c2cnc(C(F)F)cn2)C1 (centres unmarked) [Compound 37]		> 2		
Nc1ccc(-c2ccc(F)cc2F)nc1NC(=O)N1CCC(c2ncccn2)C1 (single isomer, unassigned) [Compound 8E2]	1 to 2		1 to 2	
Cc1cc(C)nc(C2CCN(C(=O)Nc3nc(-c4ccc(F)cc4F)ccc3N)C2)n1 (centres unmarked) [Compound 16]		> 2		
Cc1cnc(CC2CCN(C(=O)Nc3nc(-c4ccc(F)cc4F)ccc3N)C2)o1 (centres unmarked) [Compound 47]		> 2		
Cc1ccc(CC2CCN(C(=O)Nc3nc(-c4ccc(F)cc4F)ccc3N)C2)nn1 (centres unmarked) [Compound 28]		1 to 2		
Cc1nnc(C2CCN(C(=O)Nc3nc(-c4ccc(F)cc4F)ccc3N)C2)s1 (centres unmarked) [Compound 32]		1 to 2		
Nc1ccc(-c2ccc(F)cc2F)nc1NC(=O)N1CCC(Oc2cccnn2)C1 (centres unmarked) [Compound 22]		> 2		
COCc1cccc(C2CCN(C(=O)Nc3nc(-c4ccc(F)cc4F)ccc3N)C2)n1 (centres unmarked) [Compound 12]		> 2		
Nc1ccc(-c2ccc(Cl)s2)nc1NC(=O)N1CCC(c2ncccn2)C1 (centres unmarked) [Compound 42]		> 2		
Cc1ccc(C2CCN(C(=O)Nc3nc(-c4ccc(F)cc4F)ccc3N)C2)cn1 (centres unmarked) [Compound 11]		> 2		
Nc1ccc(-c2ccc(F)cc2F)nc1NC(=O)N1CCC(c2ncccn2)C1 (single isomer, unassigned) [Compound 8E1]	< 0.5		< 0.5	
Cc1nccc(C2CCN(C(=O)Nc3nc(-c4ccc(F)cc4F)ccc3N)C2)n1 (centres unmarked) [Compound 15]		> 2		
Nc1ccc(-c2ccc(F)cc2)nc1NC(=O)N1CCCC1 [Comparator A, reference compound]				2.64
Cc1cnc(C2CCN(C(=O)Nc3nc(-c4ccc(F)cc4F)ccc3N)C2)s1 (centres unmarked) [Compound 30]		> 2		
